Measured values: US20250270191A1, “QUINOLONE BCL6 BIFUNCTIONAL DEGRADERS” (Treeline Biosciences, Inc., priority 2022, published 2025)

What follows are molecules tested against T1, Human BCL6 protein (N-terminal HiBiT tagged BCL6 in HT1080 cells) (Homo sapiens, UniProt P41182+Q96SW2) (assay: HiBiT based BCL6 degradation assay). Conditions: HT1080 cells expressing N-terminal HiBiT tagged BCL6; 5 hours incubation; BCL6 degradation normalized with DMSO control.
T1 construct: Human BCL6 protein coding open reading frame; expressed in transfected cells; host or cells: HT1080 (ATCC CCL-121), stably transduced with lentivirus pLV-UBC-N-HiBiT-BCL6-PGK-puro
Format: cell-based
Source text: Human BCL6 protein coding open reading frame fused with N-terminal HiBiT coding sequence was synthesized from Integrated DNA Technologies (IDT). Next, the N-HiBiT-BCL6 sequence was cloned into pLV-UBC-PGK-Puro, a lentivirus plasmid purchased from Vectorbuilder, to generate pLV-UBC-N-HiBiT-BCL6-PGK-puro. Lentiviral particles were generated from Lenti-X™ 293T cells (Clontech) by co-transfection of pLV-UBC-N-HiBiT-BCL6-PGK-puro plasmids and lentiviral packaging plasmid mix (Cellecta). HT1080 [HT1080] (ATCC CCL-121) cells were infected with the lentivirus, and HT1080 cells stably integrated with the lentiviral vectors were established by incubation with 1 μg/mL puromycin (Thermofisher).
HT1080 cells expressing N-terminal HiBiT tagged BCL6 were dispensed into a 384-well plate pre-spotted with compounds at varying concentrations. Five thousand cells were seeded into each well in 40 μL of RPMI 1640 media plus 10% Fetal Bovine Serum (10082-147, Thermofisher). After 5 hours of incubation at 37° C. with 5% CO2, 30 μL of the NANO-GLO® HiBiT Lytic Detection System working solution (Promega) was added to each well and incubated at room temperature for 15 min. After incubation, luminescence was read on a PHERAstar FSX Plate Reader (BMG). BCL6 degradation at each indicated concentration was normalized with DMSO control. The BCL6 degradation curves were plotted using a four-parameter logistic model.

Compound | Ymin (5 hr)
CNC(=O)COc1cc2cc(Nc3nc(N4CCC5(CCC(Nc6ccc7c(C8CCC(=O)NC8=O)nn(C)c7c6)CC5)C4)ncc3Cl)ccc2n(C)c1=O (stereo not drawn) [Compound 343, 2-((6-((5-chloro-2-(8-((3-(2,6-dioxopiperidin-3-yl)-1-methyl-1H-indazol-6-yl)amino)-2-azaspiro[4.5]decan-2-yl)pyrimidin-4-yl)amino)-1-methyl-2-oxo-1,2-dihydroquinolin-3-yl)oxy)-N-methylacetamide] | +++ (25% < Ymin ≤ 50%)
CNC(=O)COc1cc2cc(Nc3nc(N4CCC(CC5CCN(c6ccc7c(C8CCC(=O)NC8=O)nn(C)c7c6)CC5)CC4)ncc3Cl)ccc2n(C)c1=O (stereo not drawn) [Compound 288, 2-((6-((5-chloro-2-(4-((1-(3-(2,6-dioxopiperidin-3-yl)-1-methyl-1H-indazol-6-yl)piperidin-4-yl)methyl)piperidin-1-yl)pyrimidin-4-yl)amino)-1-methyl-2-oxo-1,2-dihydroquinolin-3-yl)oxy)-N-methylacetamide] | +++ (25% < Ymin ≤ 50%)
CNC(=O)COc1cc2cc(Nc3nc(N4CCC[C@H](CCNc5cccc6c(C7CCC(=O)NC7=O)nn(C)c56)C4)ncc3Cl)ccc2n(C)c1=O (single isomer, unassigned) [Compound 294b] | ++ (50% < Ymin ≤ 70%)
CNC(=O)COc1cc2cc(Nc3nc(N4CCC[C@H](CNc5cccc(C6CCC(=O)NC6=O)c5)C4)ncc3Cl)ccc2n(C)c1=O (stereo partly drawn) [Compound 275a, 2-((6-((5-chloro-2-((3R)-3-(((3-(2,6-dioxopiperidin-3-yl)phenyl)amino)methyl)piperidin-1-yl)pyrimidin-4-yl)amino)-1-methyl-2-oxo-1,2-dihydroquinolin-3-yl)oxy)-N-methylacetamide] | + (Ymin > 70%)
CNC(=O)COc1cc2cc(Nc3nc(N4CCO[C@H](COc5ccc6c(C7CCC(=O)NC7=O)nn(C)c6c5)C4)ncc3Cl)ccc2n(C)c1=O (stereo partly drawn) [Compound 317a, 2-((6-((5-chloro-2-((2S)-2-(((3-(2,6-dioxopiperidin-3-yl)-1-methyl-1H-indazol-6-yl)oxy)methyl)morpholino)pyrimidin-4-yl)amino)-1-methyl-2-oxo-1,2-dihydroquinolin-3-yl)oxy)-N-methylacetamide] | +++ (25% < Ymin ≤ 50%)
CC(=O)COc1cc2cc(Nc3nc(N4CCN(CC5CCN(c6cccc7c(C8CCC(=O)NC8=O)nn(C)c67)CC5)[C@@H](C)C4)ncc3Cl)ccc2n(C)c1=O (stereo partly drawn) [Compound 347a, 3-(7-(4-(((S)-4-(5-chloro-4-((1-methyl-2-oxo-3-(2-oxopropoxy)-1,2-dihydroquinolin-6-yl)amino)pyrimidin-2-yl)-2-methylpiperazin-1-yl)methyl)piperidin-1-yl)-1-methyl-1H-indazol-3-yl)piperidine-2,6-dione] | ++++ (Ymin ≤ 25%)
CNC(=O)COc1cc2cc(Nc3nc(NC[C@H]4CC[C@H](CNc5ccc6c(C7CCC(=O)NC7=O)nn(C)c6c5)CC4)ncc3Cl)ccc2n(C)c1=O (stereo partly drawn) [Compound 293b, 2-((6-((5-chloro-2-((((1r,4r)-4-(((3-(2,6-dioxopiperidin-3-yl)-1-methyl-1H-indazol-6-yl)amino)methyl)cyclohexyl)methyl)amino)pyrimidin-4-yl)amino)-1-methyl-2-oxo-1,2-dihydroquinolin-3-yl)oxy)-N-methylacetamide] | ++ (50% < Ymin ≤ 70%)
CNC(=O)COc1cc2cc(Nc3nc(N4CCN(CC5CCN(C(=O)c6ccc7c(C8CCC(=O)NC8=O)nn(C)c7c6)CC5)CC4)ncc3Cl)ccc2n(C)c1=O (stereo not drawn) [Compound 321, 2-((6-((5-chloro-2-(4-((1-(3-(2,6-dioxopiperidin-3-yl)-1-methyl-1H-indazole-6-carbonyl)piperidin-4-yl)methyl)piperazin-1-yl)pyrimidin-4-yl)amino)-1-methyl-2-oxo-1,2-dihydroquinolin-3-yl)oxy)-N-methylacetamide] | +++ (25% < Ymin ≤ 50%)
CNC(=O)COc1cc2cc(Nc3nc(N4CCC[C@@H](CNc5ccc6c(C7CCC(=O)NC7=O)nn(C)c6c5)C4)ncc3Cl)ccc2n(C)c1=O (stereo partly drawn) [Compound 261a, 2-((6-((5-chloro-2-((3S)-3-(((3-(2,6-dioxopiperidin-3-yl)-1-methyl-1H-indazol-6-yl)amino)methyl)piperidin-1-yl)pyrimidin-4-yl)amino)-1-methyl-2-oxo-1,2-dihydroquinolin-3-yl)oxy)-N-methylacetamide] | ++ (50% < Ymin ≤ 70%)
CNC(=O)COc1cc2cc(Nc3nc(N4CCC(OC5CCN(c6ccc7c(C8CCC(=O)NC8=O)nn(C)c7c6)CC5)CC4)ncc3Cl)ccc2n(C)c1=O (stereo not drawn) [Compound 287, 2-((6-((5-chloro-2-(4-((1-(3-(2,6-dioxopiperidin-3-yl)-1-methyl-1H-indazol-6-yl)piperidin-4-yl)oxy)piperidin-1-yl)pyrimidin-4-yl)amino)-1-methyl-2-oxo-1,2-dihydroquinolin-3-yl)oxy)-N-methylacetamide] | +++ (25% < Ymin ≤ 50%)
CNC(=O)COc1cc2cc(Nc3nc(N4C5CCC4CN(CC4CCN(c6cccc7c(C8CCC(=O)NC8=O)nn(C)c67)CC4)C5)ncc3Cl)ccc2n(C)c1=O (stereo not drawn) [Compound 325, 2-((6-((5-chloro-2-(3-((1-(3-(2,6-dioxopiperidin-3-yl)-1-methyl-1H-indazol-7-yl)piperidin-4-yl)methyl)-3,8-diazabicyclo[3.2.1]octan-8-yl)pyrimidin-4-yl)amino)-1-methyl-2-oxo-1,2-dihydroquinolin-3-yl)oxy)-N-methylacetamide] | +++ (25% < Ymin ≤ 50%)
CNC(=O)COc1cc2cc(Nc3nc(N4CCN(CC5CCC6(CC5)CN(c5cccc7c(C8CCC(=O)NC8=O)nn(C)c57)C6)CC4)ncc3Cl)ccc2n(C(C)C)c1=O (stereo not drawn) [Compound 311, 2-((6-((5-chloro-2-(4-((2-(3-(2,6-dioxopiperidin-3-yl)-1-methyl-1H-indazol-7-yl)-2-azaspiro[3.5]nonan-7-yl)methyl)piperazin-1-yl)pyrimidin-4-yl)amino)-1-isopropyl-2-oxo-1,2-dihydroquinolin-3-yl)oxy)-N-methylacetamide] | ++ (50% < Ymin ≤ 70%)
CNC(=O)COc1cc2cc(Nc3nc(N4CCC5CN(c6cccc7c(C8CCC(=O)NC8=O)nn(C)c67)CC5C4)ncc3Cl)ccc2n(C)c1=O (stereo not drawn) [Compound 326, 2-((6-((5-chloro-2-(2-(3-(2,6-dioxopiperidin-3-yl)-1-methyl-1H-indazol-7-yl)octahydro-5H-pyrrolo[3,4-c]pyridin-5-yl)pyrimidin-4-yl)amino)-1-methyl-2-oxo-1,2-dihydroquinolin-3-yl)oxy)-N-methylacetamide] | +++ (25% < Ymin ≤ 50%)
CNC(=O)COc1cc2cc(Nc3nc(N4CCN([C@H](C)C5CCN(c6cccc7c(C8CCC(=O)NC8=O)nn(C)c67)CC5)CC4)ncc3Cl)ccc2n(C)c1=O (single isomer, unassigned) [Compound 307b] | +++ (25% < Ymin ≤ 50%)
CNC(=O)COc1cc2cc(Nc3nc(N4CCC[C@@H]4CNc4cccc(C5CCC(=O)NC5=O)c4)ncc3Cl)ccc2n(C)c1=O (stereo partly drawn) [Compound 260a, 2-((6-((5-chloro-2-((2R)-2-(((3-(2,6-dioxopiperidin-3-yl)phenyl)amino)methyl)pyrrolidin-1-yl)pyrimidin-4-yl)amino)-1-methyl-2-oxo-1,2-dihydroquinolin-3-yl)oxy)-N-methylacetamide] | ++ (50% < Ymin ≤ 70%)
CNC(=O)COc1cc2cc(Nc3nc(N4CCN(CC5CCN(C(=O)c6cccc7c(C8CCC(=O)NC8=O)nn(C)c67)CC5)CC4)ncc3Cl)ccc2n(C)c1=O (stereo not drawn) [Compound 323, 2-((6-((5-chloro-2-(4-((1-(3-(2,6-dioxopiperidin-3-yl)-1-methyl-1H-indazole-7-carbonyl)piperidin-4-yl)methyl)piperazin-1-yl)pyrimidin-4-yl)amino)-1-methyl-2-oxo-1,2-dihydroquinolin-3-yl)oxy)-N-methylacetamide] | +++ (25% < Ymin ≤ 50%)
CNC(=O)COc1cc2cc(Nc3nc(NC[C@H]4CC[C@H](Nc5cccc(C6CCC(=O)NC6=O)c5)CC4)ncc3Cl)ccc2n(C)c1=O (stereo partly drawn) [Compound 262b, 2-((6-((5-chloro-2-((((1r,4r)-4-((3-(2,6-dioxopiperidin-3-yl)phenyl)amino)cyclohexyl)methyl)amino)pyrimidin-4-yl)amino)-1-methyl-2-oxo-1,2-dihydroquinolin-3-yl)oxy)-N-methylacetamide] | ++ (50% < Ymin ≤ 70%)
CNC(=O)COc1cc2cc(Nc3nc(N4CCC(CCCCOc5ccc6c(C7CCC(=O)NC7=O)nn(C)c6c5)CC4)ncc3Cl)ccc2n(C)c1=O (stereo not drawn) [Compound 319, 2-((6-((5-chloro-2-(4-(4-((3-(2,6-dioxopiperidin-3-yl)-1-methyl-1H-indazol-6-yl)oxy)butyl)piperidin-1-yl)pyrimidin-4-yl)amino)-1-methyl-2-oxo-1,2-dihydroquinolin-3-yl)oxy)-N-methylacetamide] | ++ (50% < Ymin ≤ 70%)
